Measured values reported in ChEMBL document CHEMBL5528017, “Design and synthesis of dual BRD4/Src inhibitors for treatment of triple-negative breast cancer” (Eur J Med Chem, 2024).
Calls of active or inactive are those of the source. The calls are words filed in the database; no cut-off is given here.

Columns and labels:
[1] = Toxicity against NOD-SCID mouse xenografted with human MDA-MB-231 cells assessed as effect on body weight at 15 mg/kg, ip administered 5 days per week for 27 days; type: organism-based; conditions: in vivo, 648 h, time 27 day
MDA-MB-231 [2] = test: Induction of cell cycle arrest in human MDA-MB-231 cells assessed as proportion of cells at G2 phase at 0.1 uM incubated for 24 hrs by propidium iodide staining based flow cytometry (reference value: 11.6%); type: functional
[3] = Toxicity against NOD-SCID mouse xenografted with human MDA-MB-231 cells assessed as adverse effects at 15 mg/kg, ip administered 5 days per week for 27 days; type: organism-based; conditions: in vivo, 648 h, time 27 day
MDA-MB-231 [4] = test: Induction of apoptosis in human MDA-MB-231 cells assessed as proportion of necrotic cells at 0.5 uM incubated for 36 hrs by AnnexinV-FITC/PI staining based flow cytometry (reference value: 0%); type: functional
MDA-MB-231 [5] = test: Induction of apoptosis in human MDA-MB-231 cells assessed as proportion of late apoptotic cells at 0.5 uM incubated for 36 hrs by AnnexinV-FITC/PI staining based flow cytometry (reference value: […]%); type: functional
MDA-MB-231 [6] = test: Induction of apoptosis in human MDA-MB-231 cells assessed as proportion of viable cells at 0.5 uM incubated for 36 hrs by AnnexinV-FITC/PI staining based flow cytometry (reference value: 93.6%); type: functional
MDA-MB-231 [7] = test: Induction of apoptosis in human MDA-MB-231 cells assessed as increase in cleaved caspase-9 expression at 0.5 uM incubated for 36 hrs by western blot analysis; type: functional, cell-based
MDA-MB-231 [8] = test: Induction of apoptosis in human MDA-MB-231 cells assessed as proportion of late apoptotic cells at 1 uM incubated for 36 hrs by AnnexinV-FITC/PI staining based flow cytometry (reference value: […]%); type: functional
MDA-MB-231 [9] = test: Induction of cell cycle arrest in human MDA-MB-231 cells assessed as decrease in cyclin E1 expression at 0.1 to 0.2 uM incubated for 24 hrs by western blot analysis; type: functional, cell-based; conditions: dose 0.1-0.2 µM
MDA-MB-231 [10] = test: Induction of apoptosis in human MDA-MB-231 cells assessed as proportion of viable cells at 1 uM incubated for 36 hrs by AnnexinV-FITC/PI staining based flow cytometry (reference value: 93.6%); type: functional
MDA-MB-231 [11] = test: cells; conditions: Homo sapiens, MDA-MB-231, 72 h
Description: Antiproliferative activity against human MDA-MB-231 cells assessed as inhibition of cell viability incubated for 72 hrs by CCK8 assay

MDA-MB-231 [12] = test: Induction of cell cycle arrest in human MDA-MB-231 cells assessed as increase in p21 expression at 0.1 to 0.2 uM incubated for 24 hrs by western blot analysis; type: functional, cell-based; conditions: dose 0.1-0.2 µM
A549 = test: Antiproliferative activity against human A549 cells assessed as inhibition of cell viability incubated for 3 to 4 days by CCK8 assay; type: functional, cell-based; conditions: time 3-4 day
MDA-MB-231 [13] = test: Induction of apoptosis in human MDA-MB-231 cells assessed as increase in cleaved caspase-3 expression at 0.5 uM incubated for 36 hrs by western blot analysis; type: functional, cell-based
MDA-MB-231 [14] = test: Antitumor activity against human MDA-MB-231 cells xenografted in NOD-SCID mouse assessed as reduction in tumor weight at 15 mg/kg, ip administered 5 days per week for 27 days; type: functional; conditions: MDA-MB-231, 648 h, time 27 day
MDA-MB-231 [15] = test: Induction of apoptosis in human MDA-MB-231 cells assessed as proportion of early apoptotic cells at 0.5 uM incubated for 36 hrs by AnnexinV-FITC/PI staining based flow cytometry (reference value: 5.05%); type: functional
MDA-MB-231 [16] = test: Antitumor activity against human MDA-MB-231 cells xenografted in NOD-SCID mouse assessed as inhibition of tumor growth at 20 mg/kg, ip qd for 10 days; type: functional; conditions: MDA-MB-231, 240 h, time 10 day, read-out: TGI
CWR22R = test: Antiproliferative activity against human 22Rv1 cells assessed as inhibition of cell viability incubated for 3 to 4 days by CCK8 assay; type: functional, cell-based; conditions: time 3-4 day
MDA-MB-231 [17] = test: Induction of cell cycle arrest in human MDA-MB-231 cells assessed as downregulation of cyclin B1 expression at 0.1 to 0.2 uM incubated for 24 hrs by western blot analysis; type: functional, cell-based; conditions: dose 0.1-0.2 µM
MDA-MB-231 [18] = test: Induction of cell cycle arrest in human MDA-MB-231 cells assessed as proportion of cells at S phase at 0.1 uM incubated for 24 hrs by propidium iodide staining based flow cytometry (reference value: 28.2%); type: functional
MDA-MB-231 [19] = test: Induction of cell cycle arrest in human MDA-MB-231 cells assessed as proportion of cells at G2 phase at 0.2 uM incubated for 24 hrs by propidium iodide staining based flow cytometry (reference value: 11.6%); type: functional
MCF7 = test: Antiproliferative activity against human MCF7 cells assessed as inhibition of cell viability incubated for 3 to 4 days by CCK8 assay; type: functional, cell-based; conditions: time 3-4 day
MDA-MB-231 [20] = test: Induction of apoptosis in human MDA-MB-231 cells assessed as proportion of necrotic cells at 1 uM incubated for 36 hrs by AnnexinV-FITC/PI staining based flow cytometry (reference value: 0%); type: functional
MDA-MB-231 [21] = test: Antitumor activity against human MDA-MB-231 cells xenografted in NOD-SCID mouse assessed as inhibition of tumor growth at 15 mg/kg, ip administered 5 days per week for 27 days; type: functional; conditions: MDA-MB-231, 648 h, time 27 day, read-out: TGI
MDA-MB-231 [22] = test: Induction of apoptosis in human MDA-MB-231 cells assessed as increase in cleaved PARP-1 expression at 0.5 uM incubated for 36 hrs by western blot analysis; type: functional, cell-based
MDA-MB-231 [23] = test: Induction of cell cycle arrest in human MDA-MB-231 cells assessed as proportion of cells at G1 phase at 0.1 uM incubated for 24 hrs by propidium iodide staining based flow cytometry (reference value: 59.5%); type: functional
MDA-MB-231 [24] = test: Induction of cell cycle arrest in human MDA-MB-231 cells assessed as proportion of cells at S phase at 0.2 uM incubated for 24 hrs by propidium iodide staining based flow cytometry (reference value: 28.2%); type: functional
MDA-MB-231 [25] = test: Induction of apoptosis in human MDA-MB-231 cells assessed as proportion of early apoptotic cells at 1 uM incubated for 36 hrs by AnnexinV-FITC/PI staining based flow cytometry (reference value: 5.05%); type: functional
MDA-MB-231 [26] = test: Induction of cell cycle arrest in human MDA-MB-231 cells assessed as proportion of cells at G1 phase at 0.2 uM incubated for 24 hrs by propidium iodide staining based flow cytometry (reference value: 59.5%); type: functional

SMILES: Cc1nc(Nc2ncc(C(=O)Nc3c(C)cccc3Cl)s2)cc(N2CCN(CCOC(=O)C(C)NC(=O)C[C@@H]3N=C(c4ccc(Cl)cc4)c4c(sc(C)c4C)-n4c(C)nnc43)CC2)n1 (some centres undefined)
- Activity [1]: Non-Toxic
- Activity (MDA-MB-231 [2]): 6.47%
- Activity [3]: Non-Toxic
- Activity (MDA-MB-231 [4]): 0%
- Activity (MDA-MB-231 [5]): 6.01%
- Activity (MDA-MB-231 [6]): 71.1%
- Activity (MDA-MB-231 [7]): Active
- Activity (MDA-MB-231 [8]): 7.14%
- Activity (MDA-MB-231 [9]): Active
- Activity (MDA-MB-231 [10]): 76.3%
- IC50 (MDA-MB-231 [11]): 34 nM
- Activity (MDA-MB-231 [12]): Active
- Activity (A549): Active
- Activity (MDA-MB-231 [13]): Active
- inhibition in vivo at 15 mg/kg (MDA-MB-231 [14]): 66.1%
- Activity (MDA-MB-231 [15]): 22.9%
- inhibition in vivo at 20 mg/kg (MDA-MB-231 [16]): 75.4%
- Activity (CWR22R): Active
- Activity (MDA-MB-231 [17]): Active
- Activity (MDA-MB-231 [18]): 12.8%
- Activity (MDA-MB-231 [19]): 4.96%
- Activity (MCF7): Active
- Activity (MDA-MB-231 [20]): 0%
- inhibition in vivo at 15 mg/kg (MDA-MB-231 [21]): 70.7%
- Activity (MDA-MB-231 [22]): Active
- Activity (MDA-MB-231 [23]): 80.4%
- Activity (MDA-MB-231 [24]): 10.1%
- Activity (MDA-MB-231 [25]): 16.5%
- Activity (MDA-MB-231 [26]): 84.4%
